According to PMC9571290, “Preliminary Structure–Activity Relationship Study of the MMV Pathogen Box Compound MMV675968 (2,4-Diaminoquinazoline) Unveils Novel Inhibitors of Trypanosoma brucei brucei” (Molecules, 2022):
Where two headings read alike, the source gives them in different places.

Legend:
[1] = in vitro; conditions: African green monkey
Protocol: (§1) The resulting pellet was resuspended and counted in a Neubauer chamber in the presence of trypan blue to exclude nonviable cells colored in blue. Once the cell load was estimated, they were either used for the next passage in a new flask or processed for the cytotoxicity assay.
(§2) Briefly, Vero cells at a density of 10^4 cells per well were plated in 100 µL of complete DMEM and incubated overnight to allow cell attachment. Plates were then controlled under an inverted fluorescence microscope (Lumascope LS520) to ensure adherence, sterility and cell integrity. Thereafter, culture medium from each well was carefully emptied, and plates were filled with 90 µL of fresh complete medium followed by the addition of 10 µL of serial 5-fold dilutions of compound solutions. […] Fluorescence was then read using a Magelan Infinite M200 fluorescence multiwell plate reader (Tecan) with excitation and emission wavelengths of 530 and 590 nm, respectively. The percentage of cell viability was calculated from readouts, and the median cytotoxic concentration (CC50) for each compound was deduced from concentration–response curves using GraphPad Prism 8.0 software as described above. Selectivity indexes were then determined for each test substance as follows: SI = CC50(Vero cells)/IC50(T. brucei brucei).

[2] = test system: bloodstream forms of Trypanosoma brucei brucei; assay: resazurin-based antitrypanosomal inhibition assay; type: cell-based; conditions: for pIC50 T. b. b.: Table 3
Protocol: Parasites were axenically cultivated in sterile vented flasks containing complete Hirumi’s modified Iscove’s medium 9 (HMI-9) [500 mL IMDM (Iscove’s modified Dulbecco’s medium) (Gibco, Waltham, MA, USA) supplemented with 10% (v/v) heat-inactivated fetal bovine serum (HIFBS) (Sigma Aldrich), 10% (v/v) serum plus (Sigma Aldrich), HMI-9 supplement (1 mM hypoxanthine, 0.16 mM thymidine, 50 µM bathocuproine disulfonic acid, 1.5 mM cysteine, 1.25 Mm pyruvic acid, 0.2 mM 2-mercaptoethanol (Sigma Aldrich)), and 1% (v/v) penicillin–streptomycin (Sigma Aldrich) and incubated at 37 °C in a 5% CO2 atmosphere.
The in vitro inhibitory potency of the 400 MMVPB compounds against bloodstream forms of Trypanosoma brucei brucei was evaluated using the resazurin-based inhibition assay as previously described. Briefly, parasites at their mid-logarithmic growth phase were counted, and the cell density was adjusted with fresh complete HMI-9 medium to 2 × 10^5 trypanosomes per mL. Then, 90 µL of parasite suspension was then distributed into the wells of 96-well flat-bottomed plates containing 10 µL of compounds for a final test concentration of 10 µM. […] Each assay plate was set up in duplicate and repeated two times. The percent parasite inhibition was determined for each compound based on fluorescence readouts relative to the mean fluorescence of negative control wells.
y = 100/[1+ 10^(logIC50/99-x)H], where H is the hill coefficient or slope factor [60].

[3] = test system: Vero cells; assay: cytotoxicity against Vero cells (resazurin viability assay); conditions: read-out: CC50 Vero; Table 3
Protocol: as §1, §2

[4] = Trypanosoma brucei, Table 4, analogs of MMV675968, solid material, read-out: IC50 ± SD T. b. b.
[5] = Trypanosoma brucei, Table 4, negative log of IC50 in molar, read-out: pIC50 T. b. b. (converted)
[6] = Table 3, MMVPB compounds with known potency against other diseases, read-out: IC50 ± SD T. b. b.

| SMILES | CC50 [3] [µM] | IC50 [2, 6] [µM] | pIC50 T. b. b. ([2]; negative log of IC50 in molar) | other results |
| --- | --- | --- | --- | --- |
| COc1ccc(NCc2ccc3nc(N)nc(N)c3c2Cl)cc1OC [Analog 2] | – | – | – | CC50 at 48 h [1]: 18.2 ± 3.08 µM; IC50 [2, 4]: 2.4 ± 0.07 µM; IC50 [2, 5]: 2.4 µM |
| COc1ccccc1NCc1ccc2nc(N)nc(N)c2c1Cl [Analog 3] | – | – | – | CC50 at 48 h [1]: 20.4 ± 0.7 µM; IC50 [2, 4]: 3.2 ± 0.03 µM; IC50 [2, 5]: 3.24 µM |
| COc1ccc(NCc2ccc3nc(N)nc(N)c3c2Cl)cc1 [Analog 4] | – | – | – | CC50 at 48 h [1]: 16.9 ± 0.2 µM; IC50 [2, 4]: 2.5 ± 0.15 µM; IC50 [2, 5]: 2.51 µM |
| Cc1ccccc1NCc1ccc2nc(N)nc(N)c2c1Cl [Analog 5] | – | – | – | CC50 at 48 h [1]: > 100 µM; IC50 [2, 4]: 2.3 ± 0.2 µM; IC50 [2, 5]: 2.29 µM |
| COc1ccc(NCc2ccc3nc(N)nc(N)c3c2)cc1OC [Analog 6] | – | – | – | CC50 at 48 h [1]: > 100 µM; IC50 [2, 4]: 0.56 ± 0.07 µM; IC50 [2, 5]: 0.562 µM |
| COc1ccc(NCc2ccc3nc(N)nc(N)c3c2)cc1 [Analog 8] | – | – | – | CC50 at 48 h [1]: 30.9 ± 2.3 µM; IC50 [2, 4]: 0.25 ± 0.01 µM; IC50 [2, 5]: 0.251 µM |
| Cc1ccccc1NCc1ccc2nc(N)nc(N)c2c1 [Analog 9] | – | – | – | CC50 at 48 h [1]: 22 ± 1.3 µM; IC50 [2, 4]: 0.19 ± 0.003 µM; IC50 [2, 5]: 0.191 µM |
| COc1ccc(NC(=O)c2ccc3nc(N)nc(N)c3c2)cc1 [Analog 11] | – | – | – | CC50 at 48 h [1]: 22.9 ± 0.5 µM; IC50 [2, 4]: 4 ± 1.3 µM; IC50 [2, 5]: 3.98 µM |
| COc1ccc(NC(=O)c2ccc3nc(N)nc(N)c3c2)cc1OC [Analog 12] | – | – | – | CC50 at 48 h [1]: > 100 µM; IC50 [2, 4]: > 10 µM |
| COc1ccccc1NC(=O)c1ccc2nc(N)nc(N)c2c1 [Analog 13] | – | – | – | CC50 at 48 h [1]: > 100 µM; IC50 [2, 4]: 3.2 ± 0.3 µM; IC50 [2, 5]: 3.24 µM |
| COc1cccc(CNC(=O)c2ccc3nc(N)nc(N)c3c2)c1 [Analog 14] | – | – | – | CC50 at 48 h [1]: > 100 µM; IC50 [2, 4]: 2.5 ± 0.13 µM; IC50 [2, 5]: 2.51 µM |
| Cc1ccccc1NC(=O)c1ccc2nc(N)nc(N)c2c1 [Analog 15] | – | – | – | CC50 at 48 h [1]: > 100 µM; IC50 [2, 4]: > 10 µM |
| COc1ccccc1NCc1cnc(N)nc1N [Analog 16] | – | – | – | CC50 at 48 h [1]: > 100 µM; IC50 [2, 4]: > 10 µM |
| COc1cc(NC(C)CCCN)c2ncccc2c1 (stereo not drawn) [MMV000023, Primaquine, reference compound] | – | – | – | IC50 ([2]; Trypanosoma brucei, Table 1, reference drugs included in MMVPB, read-out: IC50 ± SD T. b. b.): 8.4 ± 0.01 µM; IC50 ([2]; Trypanosoma brucei, Table 1, negative log of IC50 in molar, read-out: pIC50 T. b. b. (converted)): 8.51 µM |
| CNCCC(Oc1ccc(C(F)(F)F)cc1)c1ccccc1 (stereo not drawn) [MMV001561, fluoxetine, reference compound] | – | – | – | CC50 at 48 h [1]: 41.5 ± 1 µM |
| CN(C)c1cc(NC(=O)Nc2ccccc2)c2ccccc2n1 [MMV006901] | 14.6 ± 0.02 | 8.45 ± 0.05 | 5.07 | – |
| COc1cc(-c2cc(-c3ccc(S(C)(=O)=O)cc3)cnc2N)ccc1O [MMV010576] | > 100 | 1.5 ± 0.3 | 5.82 | – |
| COc1ccc(CCN2CCC(NCc3cccc(N(C)C)c3)CC2)cc1 [MMV011511] | > 100 | 8.94 ± 0.7 | 5.05 | – |
| Cc1cc(Nc2ccncc2)n2nc(C)c(-c3ccccc3Cl)c2n1 [MMV016136] | – | 8.61 ± 0.3 | 5.06 | – |
| COc1ccc(-c2cncc3ccc(C(=O)NCCCn4ccnc4)nc23)cc1 [MMV020670] | – | 1.9 ± 0.02 | 5.72 | – |
| CN1CCC(NCc2cccc(-c3ccc(S(=O)(=O)NCc4ccccc4)cc3)c2)CC1 [MMV022029] | 13.1 ± 0.2 | 1.7 ± 0.7 | 5.76 | – |
| O=C(Nc1ccc(N2CCNCC2)cc1)c1ccn2ncc(-c3cccc(Cl)c3)c2n1 [MMV022478] | 11.42 ± 0.07 | 1.7 ± 0.01 | 5.76 | – |
| Nc1nccc2ccc(-c3ccc4nccn4c3)cc12 [MMV023233] | 29.8 ± 0.7 | 8.43 ± 0.06 | 5.07 | – |
| c1cncc(NCc2ccc(-c3cc4ccncc4cc3OC3CCNCC3)s2)c1 [MMV023969] | 26.3 ± 0.4 | 8.09 ± 0.3 | 5.09 | – |
| O=C(Nc1ccccc1)c1ccc(-c2cc3ccncc3cc2OC2CCNCC2)s1 [MMV024035] | 35.75 ± 0.08 | 1.8 ± 0.1 | 5.74 | – |
| Cc1ccc2[nH]c(C3CCCNC3)c(-c3ccncc3)c2c1 (stereo not drawn) [MMV024311] | – | 9.78 ± 0.2 | 5.00 | – |
| O=C(Nc1ccc(N2CCNCC2)nc1)c1oc(-c2ccccc2)nc1C(F)(F)F [MMV024937] | 14.6 ± 0.6 | 1.4 ± 0.5 | 5.85 | – |

| SMILES | CC50 [3] [µM] | IC50 [2, 6] [µM] | pIC50 T. b. b. ([2]; negative log of IC50 in molar) | other results |
| --- | --- | --- | --- | --- |
| OCCc1ccc(Nc2nccc(-c3nnc4ccccn34)n2)cc1 [MMV028694] | 10.36 ± 0.1 | 1.8 ± 0.1 | 5.74 | – |
| CC(=O)N1CCc2cc3nc(C)cc(C)c3cc21 [MMV054312] | > 100 | 1.29 ± 0.42 | 5.88 | – |
| Cc1cc(C)nc(-n2nc(C)cc2Nc2ccccc2)n1 [MMV062221] | – | 1.7 ± 0.6 | 5.76 | – |
| O=C(C(Cc1c[nH]c2ccccc12)NS(=O)(=O)c1ccc(Cl)cc1)N1CCCCC1 (stereo not drawn) [MMV085210] | > 100 | 0.9 ± 0.1 | – | – |
| CCOC(=O)c1c(NC(=O)c2c(F)c(F)c(F)c(F)c2F)sc(C(N)=O)c1C [MMV153413] | > 100 | 1.7 ± 0.1 | 5.76 | – |
| CC(C)(C)c1cnc(NC(=O)c2ccccc2O)s1 [MMV495543] | – | 0.7 ± 0.25 | – | – |
| Brc1cncc(-c2cc(NCCCn3ccnc3)nc(-c3ccccc3)n2)c1 [MMV661713] | > 100 | 1.9 ± 0.02 | 5.72 | – |
| O=C(NCCN1CCCC1)c1cc(NCCCCN2CCC(F)(F)CC2)nc2ccc(Cl)cc12 [MMV667494] | > 100 | 1.3 ± 0.5 | 5.88 | – |
| COc1ccc(N(CCc2cccc(C)n2)C(=O)C2CCCCC2)cc1 [MMV675996] | – | 0.8 ± 0.02 | – | – |
| CC(Oc1ccccc1)C(=O)Nc1nc(-c2ccccn2)cs1 (stereo not drawn) [MMV676411] | – | 9.44 ± 0.09 | 5.02 | – |
| O=C(Nc1nc(-c2ccccn2)cs1)c1cncn1-c1ccccc1 [MMV676512] | – | 1.9 ± 0.07 | 5.72 | – |
| NC(=O)c1cc(-c2ccsc2)ccc1OCCOc1ccccc1 [MMV687138] | > 100 | 0.5 ± 0.01 | – | – |
| Nc1nc2cc(-c3cncc(Oc4ccc(F)cc4)c3)ccc2[nH]1 [MMV687248] | > 100 | 0.5 ± 0.07 | – | – |
| Cn1c(=O)c2c(S(C)(=O)=O)snc2n(C)c1=O [MMV687251] | 6.4 ± 2 | 1.9 ± 0.01 | 5.72 | – |
| COc1cccc(-c2nc3c(N4CCCC4)cccc3n2CC2CCCN2)n1 (stereo not drawn) [MMV687703] | > 100 | 1.7 ± 0.06 | 5.76 | – |
| Cc1cnc(N2CCN[C@@H](Cc3ccccc3)C2)nc1Oc1ccc(-n2ccnc2)cc1 [MMV687765] | > 100 | 2.3 ± 0.3 | 5.64 | – |
| O=C(Nc1ccc(C(F)(F)F)c(C(F)(F)F)c1)c1cc(Cl)ccc1O [MMV687807] | 11 ± 1.3 | 0.5 ± 0.04 | – | – |
| CN1CCN(CCCOc2ncc(Nc3ncc(-c4ccc(C(F)(F)F)c(F)c4)nc3C(N)=O)cn2)CC1 [MMV687812] | 2.66 ± 0.3 | 1.7 ± 0.1 | 5.76 | – |
| CCc1ccc(S(=O)(=O)Nc2cc(CN3CCN(CCC(C)C)CC3)ccc2C)cc1 [MMV688124] | > 100 | 2.9 ± 0.08 | 5.53 | – |
| CC(C)n1nc(-c2cc3c(Cl)cccc3[nH]2)c2c(N)ncnc21 [MMV688417] | 13.6 ± 2.9 | 4.38 ± 0.9 | 5.36 | – |
| CN1CCC(c2cc(-c3ccncc3)c(-c3ccc(F)cc3)[nH]2)CC1 [MMV688703] | – | 3.18 ± 1.3 | 5.49 | – |
| CS(=O)(=O)c1ccc(C(=O)N(CC2CCCO2)c2nc3ccccc3s2)cc1[N+](=O)[O-] (stereo not drawn) [MMV688761] | > 100 | 8.33 ± 0.09 | 5.08 | – |
| CNc1nnc(Sc2cnn(-c3ccccc3)c(=O)c2Cl)s1 [MMV688763] | 8.14 ± 0.01 | 0.8 ± 0.1 | – | – |
| Cc1[nH]c2ccccc2c1C(c1cccs1)N1CCN(C)CC1 (stereo not drawn) [MMV688768] | > 100 | 8.36 ± 0.08 | 5.07 | – |
| CCOc1ccc2cc(-c3nn(CC4CCN(C)CC4)c4ncnc(N)c34)ccc2c1 [MMV688854] | 13.4 ± 1.5 | 8.5 ± 0.06 | 5.07 | – |
| COc1cc([C@@H]2c3cc4c(cc3[C@H](O)[C@H]3COC(=O)[C@H]23)OCO4)cc(OC)c1OC [Podophyllotoxin, reference compound] | – | – | – | CC50 at 48 h [1]: 0.43 ± 0.14 µM |
